The values below come from US8772199B2, “Herbicidal compositions for tolerant or resistant maize crops” (Bayer Intellectual Property GmbH, priority 1998, dated 2014).

Structures can show the parent of a compound that is named as a salt.

In experiment [1] the test system is Commelina benghalensis. Briefly: Field trial with maize, herbicidal action. In kind it is in vivo. The conditions noted are these: application 3-leaf stage, scoring 42 days after application. The protocol: (§1) Transgenic maize plants with a resistance to one or more herbicides (A) together with typical weed plants were grown in the open on 2×5 m plots under natural field conditions; alternatively, weed infestation occurred naturally when the maize plants were grown.
(§2) 2, 4, 6 and 8 weeks after the application, the herbicidal activity of the active substances or active substance mixtures was scored visually with reference to the treated plots in comparison to untreated control plots. The damage to, and the development of, all aerial parts of the plants was recorded. Scoring was done on the basis of a percentage sale (100% action=all plants destroyed; 50% action=50% of the plants and green parts of the plants destroyed; 0% action=no recognizable effect=like control plot. The mean of the score values of in each case 4 plots was calculated.

Experiment [2] relates to Brachiaria plantaginea. Nature of the experiment: Field trial with maize, herbicidal action. The conditions noted are these: application 2-leaf stage, scoring 28 days after application. It counts as in vivo. The method, then:
as §1, §2

Consider `CP(=O)(O)CCC(N)C(=O)O` (stereo not shown) [(A1.2), glufosinate-monoammonium salt], for which the “Herbicidal action (%) against Commelina benghalensis” value in experiment [1] (100 g of a.s./ha) came out at 43%; in experiment [1] (200 g of a.s./ha), 60.0%; in experiment [1] (300 g of a.s./ha) it was 63%; in experiment [1] (600 g of a.s./ha), 82%. Further, the results for the “Herbicidal action (%) against Brachiaria plantaginea” value in experiment [2] (150 g of a.s./ha), in experiment [2] (300 g of a.s./ha) and in experiment [2] (600 g of a.s./ha) were 5%, 45% and 70%, respectively.
